Measurements as given in BindingDB's records for doi:10.1021/jm00382a015 (1985).

Target: Adenosylhomocysteinase (Bos taurus)
Experiment: Binding affinity against S-adenosyl-homocysteine hydrolase

SMILES	Ki [µM]
Nc1ncnc2c1nnn2C1CC(CO)C(O)C1O (configuration not stated) [3-(7-amino-3H-[1,2,3]triazolo[4,5-d]pyrimidin-3-yl)-5-hydroxymethyl-1,2-cyclopentanediol]	22
Nc1nccc2c1ncn2[C@@H]1C[C@H](CO)[C@@H](O)[C@H]1O [3-DEAZAARISTEROMYCIN A]	0.004
